Earlier results, collected in publication PMC12154426, “TPP-Based Nanovesicles Kill MDR Neuroblastoma Cells and Induce Moderate ROS Increase, While Exerting Low Toxicity Towards Primary Cell Cultures: An In Vitro Study” (International Journal of Molecular Sciences, 2025).
Where two headings read alike, the source gives them in different places.

Assays:
[1] = parameters: method as in PMID 36084362; settings: MFC-7, 24 h exposure, cited from earlier work
Hela = test system: Hela; parameters: method as in PMID 36084362; settings: 24 h exposure, cited from earlier work
A-375 cancer cells = test system: A-375 cancer cells; parameters: method as in PMID 28151482; settings: 24 h exposure; 30 µM vemurafenib, 50 µM TRAM-34, or their combination; cited from earlier work

Compound | IC50 ([1]; PDT/SDT) [µM] | IC50 ([1]; PDT) [µM] | IC50 ([1]; SDT) [µM] | IC50 (Hela; PDT/SDT) [µM] | IC50 (Hela; PDT) [µM] | IC50 (Hela; SDT) [µM] | ROS increase with respect to the control (A-375 cancer cells)
2,9,16,23-tetrakis(N-(N-butyl-4-triphenyl-phosphonium)-pyridine-4-yloxy) Zn(II) Pc [compound 3] | 13.2 | 43.3 | 18.2 | 12.7 | 21.8 | 14.3 | –
2,9,16,23-tetrakis-(N-(N-butyl-4-triphenyl-phosphonium)-morpholino) Zn(II) Pc [compound 4] | 15.5 | 45 | 20.5 | 14.4 | 25.6 | 17.2 | –
Clc1ccccc1C(c1ccccc1)(c1ccccc1)n1cccn1 [TRAM-34] | – | – | – | – | – | – | ~30%
CCCS(=O)(=O)Nc1ccc(F)c(C(=O)c2c[nH]c3ncc(-c4ccc(Cl)cc4)cc23)c1F [vemurafenib] | – | – | – | – | – | – | about 38%
